Test results as given in patent publication US6737383B1, “Herbicidal oxadiazolidines” (priority 1999, dated 2004).

Columns and labels:
bamyardgrass = assay: Test B flood test barnyardgrass; assay type: in vivo, Echinochloa crus-galli
How it was run: (§1)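 Flood test on plants grown to the 2-leaf stage; treated plants kept in greenhouse twelve to sixteen days, then visually rated against controls on a 0 (no effect) to 10 (complete control) scale.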

morningglory = assay: Test B pre/postemergence morningglory; assay type: in vivo, Ipomoea hederacea
How it was run: (§2)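 Herbicidal effect was estimated by eye on a ten-point control scale after plants spent twelve to sixteen days in a greenhouse following soil or foliar treatment. Foliar sprays targeted plants at one to four leaves; all doses were formulated in a non-phytotoxic solvent with surfactant.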

smallflower flatsedge = assay: Test B flood test smallflower flatsedge; assay type: in vivo, Cyperus difformis
How it was run: as §1

crabgrass = assay: Test B pre/postemergence crabgrass; assay type: in vivo, Digitaria sanguinalis
How it was run: as §2

wild oat = assay: Test B pre/postemergence wild oat; assay type: in vivo, Avena fatua; details: for Plant response rating, Wild oats: Rate 250 g/ha
How it was run: as §2

soybean = assay: Test B pre/postemergence soybean; assay type: in vivo, Glycine max
How it was run: as §2

bedstraw = assay: Test B pre/postemergence bedstraw; assay type: in vivo, Galium aparine
How it was run: as §2

giant foxtail = assay: Test B pre/postemergence giant foxtail; assay type: in vivo, Setaria faberii
How it was run: as §2

surinam grass = assay: Test B pre/postemergence surinam grass; assay type: in vivo, Brachiaria decumbens
How it was run: as §2

rice = assay: Test B flood test rice; assay type: in vivo, Oryza sativa
How it was run: as §1

pigweed = assay: Test B pre/postemergence pigweed; assay type: in vivo, Amaranthus retroflexus
How it was run: as §2

cocklebur = assay: Test B pre/postemergence cocklebur; assay type: in vivo, Xanthium strumarium
How it was run: as §2

velvetleaf = assay: Test B pre/postemergence velvetleaf; assay type: in vivo, Abutilon theophrasti; details: for Plant response rating, Velvetleaf: Rate 250 g/ha
How it was run: as §2

corn = assay: Test B pre/postemergence corn; assay type: in vivo, Zea mays
How it was run: as §2

blackgrass = assay: Test B pre/postemergence blackgrass; assay type: in vivo, Alopecurus myosuroides
How it was run: as §2

wheat = assay: Test B pre/postemergence wheat; assay type: in vivo, Triticum aestivum; details: for Plant response rating, Wheat: Rate 250 g/ha
How it was run: as §2

[1] = Postemergence, Rate 62 g/ha, scale 0 to 10, 0 is no effect, 10 is complete control
[2] = Rate 500 g/ha, listed under Postemergence (flood test species), scale 0 to 10, 0 no effect, 10 complete control
[3] = Postemergence, Rate 125 g/ha, scale of 0 to 10 where 0 is no effect and 10 is complete control
[4] = Postemergence, Rate 250 g/ha, scale 0 to 10, 0 no effect, 10 complete control
[5] = Preemergence, Rate 62 g/ha, scale 0 to 10 (0 no effect, 10 complete control)
[6] = Preemergence, Rate 125 g/ha, scale 0 to 10 (0 no effect, 10 complete control)
[7] = Preemergence, Rate 250 g/ha, scale of 0 to 10 where 0 is no effect and 10 is complete control
[8] = Preemergence, Rate 500 g/ha, scale 0 (no effect) to 10 (complete control)
[9] = Rate 500 g/ha, Postemergence, scale 0 to 10, 0 no effect, 10 complete control
[10] = Postemergence (flood test species), Rate 125 g/ha, scale of 0 to 10 where 0 is no effect and 10 is complete control
[11] = Rate 250 g/ha, Postemergence (flood test), scale 0 to 10, 0 is no effect, 10 is complete control
[12] = Preemergence, Rate 125 g/ha, 0 is no effect, 10 is complete control
[13] = Preemergence, scale of 0 to 10 where 0 is no effect and 10 is complete control
[14] = Postemergence, scale 0 to 10, 0 is no effect, 10 is complete control
[15] = Rate 250 g/ha, Postemergence, scale 0 to 10, 0 is no effect, 10 is complete control
[16] = Rate 125 g/ha, Postemergence, scale 0 to 10, 0 no effect, 10 complete control

Cc1nn(C)c(Cl)c1-n1c(=O)on(C(=O)N(c2ccc(F)cc2F)C(C)C)c1=O [Compound 96]
Barnyardgrass plant response rating (bamyardgrass; [1]): 0 | Barnyardgrass plant response rating (bamyardgrass; Rate 125 g/ha, Postemergence section (flood test species), scale 0 to 10, 0 no effect, 10 complete control): 0 | Barnyardgrass plant response rating (bamyardgrass; [2]): 0 | Barnyardgrass plant response rating (bamyardgrass; flood test, listed under Postemergence, Rate 250 g/ha, scale 0 to 10, 0 no effect, 10 complete control): 0 | Morningglory plant response rating (morningglory; [1]): 1 | Morningglory plant response rating (morningglory; [3]): 1 | Morningglory plant response rating (morningglory; [4]): 1 | Morningglory plant response rating (morningglory; [5]): 0 | Plant response rating, Morningglory (morningglory; [6]): 0 | Plant response rating, Morningglory (morningglory; [7]): 0 | Morningglory plant response rating (morningglory; [8]): 0 | Morningglory plant response rating (morningglory; [9]): 2 | S. Flatsedge plant response rating (smallflower flatsedge; [10]): 0 | S. Flatsedge plant response rating (smallflower flatsedge; [1]): 0 | Plant response rating, S. Flatsedge (smallflower flatsedge; [11]): 0 | S. Flatsedge plant response rating (smallflower flatsedge; [2]): 3 | Crabgrass plant response rating (crabgrass; [1]): 1 | Crabgrass plant response rating (crabgrass; [3]): 3 | Crabgrass plant response rating (crabgrass; [4]): 3 | Crabgrass plant response rating (crabgrass; [5]): 1 | Plant response rating, Crabgrass (crabgrass; [6]): 4 | Plant response rating, Crabgrass (crabgrass; [7]): 7 | Crabgrass plant response rating (crabgrass; [8]): 9 | Crabgrass plant response rating (crabgrass; [9]): 8 | Wild oats plant response rating (wild oat; [1]): 0 | Wild oats plant response rating (wild oat; [3]): 0 | Wild oats plant response rating (wild oat; [5]): 0 | Wild oats plant response rating (0 to 10 scale) (wild oat; [12]): 0 | Plant response rating, Wild oats (wild oat; [13]): 2 | Wild oats plant response rating (wild oat; [8]): 7 | Plant response rating, Wild oats (wild oat; [14]): 0 | Wild oats plant response rating (wild oat; [9]): 0 | Soybean plant response rating (soybean; [1]): 1 | Soybean plant response rating (soybean; [3]): 1 | Soybean plant response rating (soybean; [5]): 0 | Plant response rating, Soybean (soybean; [6]): 0 | Plant response rating, Soybean (soybean; [7]): 0 | Soybean plant response rating (soybean; [8]): 0 | Plant response rating, Soybean (soybean; [15]): 1 | Soybean plant response rating (soybean; [9]): 1 | Bedstraw plant response rating (bedstraw; [1]): 0 | Bedstraw plant response rating (bedstraw; [4]): 0 | Bedstraw plant response rating (bedstraw; [5]): 0 | Plant response rating, Bedstraw (bedstraw; [6]): 0 | Plant response rating, Bedstraw (bedstraw; [7]): 0 | Bedstraw plant response rating (bedstraw; [8]): 2 | Bedstraw plant response rating (bedstraw; [16]): 0 | Bedstraw plant response rating (bedstraw; [9]): 0 | Giant foxtail plant response rating (giant foxtail; [1]): 0 | Giant foxtail plant response rating (giant foxtail; [3]): 0 | Giant foxtail plant response rating (giant foxtail; [4]): 0 | Giant foxtail plant response rating (giant foxtail; [5]): 2 | Plant response rating, Giant foxtail (giant foxtail; [6]): 2 | Plant response rating, Giant foxtail (giant foxtail; [7]): 3 | Giant foxtail plant response rating (giant foxtail; [8]): 8 | Giant foxtail plant response rating (giant foxtail; [9]): 3 | B. signalgrass plant response rating (surinam grass; [1]): 0 | B. signalgrass plant response rating (surinam grass; [4]): 0 | B. signalgrass plant response rating (surinam grass; [5]): 0 | Plant response rating, B. signalgrass (surinam grass; [6]): 0 | Plant response rating, B. signalgrass (surinam grass; [7]): 1 | B. signalgrass plant response rating (surinam grass; [8]): 2 | B. signalgrass plant response rating (surinam grass; [16]): 0 | B. signalgrass plant response rating (surinam grass; Rate 500 g/ha, Postemergence, scale of 0 to 10 where 0 is no effect and 10 is complete control): 0 | Rice plant response rating (rice; [10]): 0 | Rice plant response rating (rice; [1]): 0 | Plant response rating, Rice (rice; [11]): 0 | Rice plant response rating (rice; [2]): 2 | Redroot pigweed plant response rating (pigweed; [1]): 0 | Redroot pigweed plant response rating (pigweed; [3]): 0 | Plant response rating, Redroot pigweed (pigweed; [6]): 6 | Plant response rating, Redroot pigweed (pigweed; [7]): 7 | Redroot pigweed plant response rating (pigweed; [8]): 8 | Plant response rating, Redroot pigweed (pigweed; [15]): 0 | Redroot pigweed plant response rating (pigweed; [9]): 0 | Cocklebur plant response rating (cocklebur; [1]): 0 | Cocklebur plant response rating (cocklebur; [3]): 0 | Cocklebur plant response rating (cocklebur; [4]): 0 | Cocklebur plant response rating (cocklebur; [5]): 0 | Plant response rating, Cocklebur (cocklebur; [6]): 0 | Plant response rating, Cocklebur (cocklebur; [7]): 0 | Cocklebur plant response rating (cocklebur; [8]): 0 | Cocklebur plant response rating (cocklebur; [9]): 2 | Velvetleaf plant response rating (velvetleaf; [1]): 0 | Velvetleaf plant response rating (velvetleaf; [3]): 0 | Velvetleaf plant response rating (velvetleaf; [5]): 0 | Velvetleaf plant response rating (0 to 10 scale) (velvetleaf; [12]): 0 | Plant response rating, Velvetleaf (velvetleaf; [13]): 0 | Velvetleaf plant response rating (velvetleaf; [8]): 0 | Plant response rating, Velvetleaf (velvetleaf; [14]): 0 | Velvetleaf plant response rating (velvetleaf; [9]): 0 | Corn plant response rating (corn; [1]): 0 | Corn plant response rating (corn; [3]): 0 | Corn plant response rating (corn; [4]): 0 | Corn plant response rating (corn; [5]): 0 | Plant response rating, Corn (corn; [6]): 0 | Plant response rating, Corn (corn; [7]): 0 | Corn plant response rating (corn; [8]): 0 | Corn plant response rating (corn; [9]): 0 | Blackgrass plant response rating (blackgrass; [1]): 0 | Blackgrass plant response rating (blackgrass; [3]): 0 | Blackgrass plant response rating (blackgrass; [4]): 0 | Blackgrass plant response rating (blackgrass; [5]): 0 | Plant response rating, Blackgrass (blackgrass; [6]): 3 | Plant response rating, Blackgrass (blackgrass; [7]): 3 | Blackgrass plant response rating (blackgrass; [8]): 8 | Blackgrass plant response rating (blackgrass; [9]): 0 | Wheat plant response rating (wheat; [1]): 0 | Wheat plant response rating (wheat; [3]): 0 | Wheat plant response rating (wheat; [5]): 0 | Wheat plant response rating (0 to 10 scale) (wheat; [12]): 0 | Plant response rating, Wheat (wheat; [13]): 0 | Wheat plant response rating (wheat; [8]): 0 | Plant response rating, Wheat (wheat; [14]): 0 | Wheat plant response rating (wheat; [9]): 0
